For seven compounds, IC50 and Kd results are on record in ChEMBL document CHEMBL5108037, “Cyclic Peptide Screening Methods for Preclinical Drug Discovery” (J Med Chem, 2022).

Assay [1] in a line: Antiproliferative activity against human LNCaP-95 cells assessed as cell growth inhibition measured after 24 hrs by CellTiter-Glo assay. Type of assay: functional, cell-based. The settings on record: LNCaP-95, 24 h. A general note: ATP-based viability assays read luminescence as a measure of living cells.
Assay [2] in a line: Antiproliferative activity against human LNCaP-abl cells assessed as cell growth inhibition measured after 24 hrs by CellTiter-Glo assay. It is filed as functional, cell-based.
A short description of assay [3]: Inhibition of HIF-1alpha / HIF-1beta (unknown origin) protein-protein interaction by ELISA assay. More on the design: species or system Homo sapiens.
A short description of assay [4]: Inhibition of recombinant His-tagged HIF-1 expressed in human U2OS cells measured after 90 mins by ELISA assay. It is filed as cell-based.
A short description of assay [5]: Inhibition of TEV protease using Cy5-ENLYFQGK(QSY21)-NH2 as substrate incubated for 1 hr by fluorescence based analysis. More on the design: species or system Tobacco etch virus.
In another assay the target is GTPase KRas (Homo sapiens, UniProt P01116, G12D). Nature of the assay: Inhibition of human His-Avi-TEV-tagged KRAS G12D mutant expressed in Escherichia coli BL21(DE3) by TR-FRET assay.
The target of another assay is T1, TCF4-CTNNB1 complex (Homo sapiens, UniProt P35222).
T1 sequence (P35222 whole entry): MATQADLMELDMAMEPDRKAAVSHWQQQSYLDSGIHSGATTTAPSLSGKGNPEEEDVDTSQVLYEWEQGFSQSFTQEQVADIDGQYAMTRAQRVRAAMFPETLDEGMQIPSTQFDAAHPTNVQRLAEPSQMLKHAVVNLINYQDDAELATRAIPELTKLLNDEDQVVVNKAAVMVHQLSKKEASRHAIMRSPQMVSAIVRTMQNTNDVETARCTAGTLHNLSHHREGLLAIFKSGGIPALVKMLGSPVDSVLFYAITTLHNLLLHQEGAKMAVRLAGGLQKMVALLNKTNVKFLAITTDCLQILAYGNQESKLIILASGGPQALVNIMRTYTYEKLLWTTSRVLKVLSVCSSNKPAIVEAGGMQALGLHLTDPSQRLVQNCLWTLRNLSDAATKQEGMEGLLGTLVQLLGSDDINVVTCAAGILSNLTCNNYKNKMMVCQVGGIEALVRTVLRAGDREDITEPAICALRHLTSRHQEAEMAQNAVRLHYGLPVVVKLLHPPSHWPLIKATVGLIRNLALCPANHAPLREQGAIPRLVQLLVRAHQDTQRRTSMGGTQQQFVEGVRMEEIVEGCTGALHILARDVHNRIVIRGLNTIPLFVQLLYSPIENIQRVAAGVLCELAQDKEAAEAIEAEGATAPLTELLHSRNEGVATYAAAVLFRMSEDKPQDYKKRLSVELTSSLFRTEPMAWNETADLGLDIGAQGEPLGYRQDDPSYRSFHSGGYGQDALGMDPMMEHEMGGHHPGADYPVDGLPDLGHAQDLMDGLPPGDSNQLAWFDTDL
T1 sequence (P15884 whole entry): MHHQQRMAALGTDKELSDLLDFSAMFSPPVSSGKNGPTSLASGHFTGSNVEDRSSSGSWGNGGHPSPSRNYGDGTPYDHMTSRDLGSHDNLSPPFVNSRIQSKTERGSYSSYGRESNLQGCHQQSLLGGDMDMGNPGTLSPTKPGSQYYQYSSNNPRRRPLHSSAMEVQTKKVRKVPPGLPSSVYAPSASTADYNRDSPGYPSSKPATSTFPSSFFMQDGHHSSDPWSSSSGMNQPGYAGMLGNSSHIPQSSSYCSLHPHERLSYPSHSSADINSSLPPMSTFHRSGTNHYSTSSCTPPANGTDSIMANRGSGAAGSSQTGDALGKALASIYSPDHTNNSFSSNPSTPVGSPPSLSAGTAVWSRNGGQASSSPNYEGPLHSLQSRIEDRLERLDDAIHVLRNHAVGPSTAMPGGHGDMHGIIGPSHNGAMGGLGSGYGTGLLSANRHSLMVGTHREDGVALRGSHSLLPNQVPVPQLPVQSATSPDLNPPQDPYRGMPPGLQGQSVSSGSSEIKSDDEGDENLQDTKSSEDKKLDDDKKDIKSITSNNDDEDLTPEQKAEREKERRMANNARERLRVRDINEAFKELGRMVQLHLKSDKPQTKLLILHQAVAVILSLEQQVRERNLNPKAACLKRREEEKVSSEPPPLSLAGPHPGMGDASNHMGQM
Description: Binding affinity to FITC-labeled Tcf4 (unknown origin) /6His-tagged beta-catenin (135 to 668 residues) (unknown origin) protein-protein interaction assessed as inhibition constant by fluorescence polarization assay. Type of assay: protein-complex assay.

The target in assay [6] is T2, Kelch-like ECH-associated protein 1 (Homo sapiens, UniProt Q14145). Description: Binding affinity to Keap1 (unknown origin) assessed as dissociation constant by calorimetric analysis.
Assay [7] deals with T2, Kelch-like ECH-associated protein 1. Description: Inhibition of Keap1 (unknown origin) by ELISA analysis.

Each structure is given as a SMILES string. Starred links: 1 amine or outer side, 2 acyl side, 3 side chain; linkers in the order of their positions; H or OH if unused. Positions of bridges follow the written chain, without caps; N, C: chain ends. Non-standard residues stand in square brackets, D forms with d. Residues, ends and D or L forms follow the SMILES beside them. *: point of attachment. X2 = CC1CCN(C[C@H](N[*:1])C(=O)[*:2])CC1; X3 = NC(=O)CNC[C@H](CSCC(=O)[*:1])N[*:2]; X1 = O=C(CN(CC[*:3])[*:1])[*:2]; CH2CH2 = C(C[*:2])[*:1]; Dap = NC[C@H](N)C(=O)O; BrAc = O=C(CBr)*; Mpa = O=C(O)CCS A value given as a limit tells only on which side of the number the result lay.

T2 sequence (Q14145 whole entry): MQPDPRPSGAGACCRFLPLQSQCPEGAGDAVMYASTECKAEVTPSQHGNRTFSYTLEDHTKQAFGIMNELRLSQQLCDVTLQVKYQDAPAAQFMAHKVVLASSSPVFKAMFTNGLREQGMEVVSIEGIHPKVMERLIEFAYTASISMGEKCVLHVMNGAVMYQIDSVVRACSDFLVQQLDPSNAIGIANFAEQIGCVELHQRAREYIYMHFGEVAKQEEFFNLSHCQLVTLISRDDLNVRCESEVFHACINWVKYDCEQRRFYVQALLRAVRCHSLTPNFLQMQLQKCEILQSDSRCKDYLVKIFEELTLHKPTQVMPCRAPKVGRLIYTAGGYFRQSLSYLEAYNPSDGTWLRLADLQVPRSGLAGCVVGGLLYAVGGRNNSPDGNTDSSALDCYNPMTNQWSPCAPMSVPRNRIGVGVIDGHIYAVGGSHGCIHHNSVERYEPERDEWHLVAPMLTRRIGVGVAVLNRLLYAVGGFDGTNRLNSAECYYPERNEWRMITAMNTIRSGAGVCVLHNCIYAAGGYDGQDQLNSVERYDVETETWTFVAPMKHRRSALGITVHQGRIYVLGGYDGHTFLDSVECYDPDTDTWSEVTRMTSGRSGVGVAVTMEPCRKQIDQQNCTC
Sequence of GTPase KRas (P01116 whole entry G12D): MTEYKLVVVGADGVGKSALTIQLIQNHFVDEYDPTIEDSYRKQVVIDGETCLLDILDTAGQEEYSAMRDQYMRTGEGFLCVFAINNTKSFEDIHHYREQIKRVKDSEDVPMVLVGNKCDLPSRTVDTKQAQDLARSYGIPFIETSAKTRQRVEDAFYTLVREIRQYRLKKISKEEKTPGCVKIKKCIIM

As a reminder, the IC50 is the concentration needed to halve the response being measured. Consider `COc1ccc([C@H](C)N(CC(=O)N(CCCOC(C)C)CC(=O)N(CC(=O)N(CCc2ccccc2Oc2ccccc2)CC(=O)O)c2cc(OC)cc(OC)c2)C(=O)CN(C(=O)[C@@H](C)N)[C@@H](C)c2ccc(OC)cc2)cc1`, for which the IC50 was > 20000 nM in assay [1] and 7100 nM in assay [2].

With `CC(C)C[C@@H]1NC(=O)[C@H](CS)NC(=O)[C@H](Cc2ccc(O)cc2)NC(=O)[C@H](C(C)C)NC(=O)[C@H](Cc2ccccc2)NC(=O)[C@H](CC(C)C)NC1=O`, the IC50 was 1300 nM in [3] and 19000 nM in assay [4]. In assay [5], `CSCC[C@@H]1NC(=O)[C@H](Cc2ccc(O)cc2)NC(=O)[C@@H](NC(=O)[C@H](C)N)CSC/C(=N\OCC(=O)NC/C=C/S(C)(=O)=O)CSC[C@@H](C(=O)NCC(=O)O)NC(=O)[C@H](CC(C)C)NC(=O)[C@H](Cc2ccc(O)cc2)NC(=O)[C@H](CC(C)C)NC(=O)[C@@H]2CCCN2C(=O)[C@H](CCC(=O)O)NC(=O)[C@H](CCC(N)=O)NC1=O` had an IC50 of 730 nM. With `COc1ccc([C@H](C)N2CC(=O)N(CCCOC(C)C)CC(=O)N(c3cc(OC)cc(OC)c3)CC(=O)N(CCc3ccccc3Oc3ccccc3)CC(=O)N[C@H](C)C(=O)N([C@@H](C)c3ccc(OC)cc3)CC2=O)cc1`, the values for the IC50 in [1] and in [2] were 782 nM and 195 nM, respectively. For `CC1CCN(C[C@@H]2NC(=O)[C@H](CCCNC(=N)N)NC(=O)[C@H](Cc3ccccc3)NC(=O)[C@H](CC(N)=O)NC(=O)[C@H](CCCNC(=N)N)NC(=O)[C@H](Cc3ccccc3)NC(=O)[C@H](CC(N)=O)NC(=O)[C@H](C(C)C)NC(=O)[C@H](Cc3ccccc3)NC(=O)[C@H](Cc3ccc(O)cc3)NC(=O)CSC[C@@H](CNCC(N)=O)NC(=O)[C@H](CCCNC(=N)N)NC(=O)[C@H](Cc3ccccc3)NC2=O)CC1` (YFVNFRNFR[X2]FR; linker N-C via X3), inhibition against GTPase KRas was half-maximal at 800 nM (IC50). Regarding `CC[C@H](C)[C@@H]1NC(=O)[C@H](CNC(=O)CBr)NC(=O)[C@H](CC(=O)O)NC(=O)[C@H](CC(=O)O)NC(=O)CNC(=O)[C@@H]2CCCN2C(=O)[C@H](C)NC(=O)[C@H](CCCNC(=N)N)NC(=O)[C@H]([C@@H](C)O)NC(=O)[C@H](CCC(N)=O)NC(=O)[C@H]([C@@H](C)O)NC(=O)CCSCCN(CC(N)=O)C(=O)[C@H](Cc2ccccc2)NC(=O)[C@H]([C@@H](C)O)NC1=O` ([Mpa]TQTRAPGDD[Dap](BrAc)ITF[X1]-NH2; thioether 1-15), at TCF4-CTNNB1 complex, the IC50 was determined as 4000 nM. For orientation: Kd means the equilibrium constant for the complex coming apart. On to `C[C@@H](O)[C@@H]1NC(=O)[C@H](CCC(=O)O)NC(=O)[C@H](CO)NC(=O)[C@H](CC(=O)O)NC(=O)[C@@H](N)Cc2ccc(cc2)OCCSC[C@@H](C(=O)O)NC(=O)[C@H](CCC(=O)O)NC(=O)CNC1=O` (H-YDSETGEC-OH; linker 1-8 via CH2CH2), for which the Kd in assay [6] came out at 110 nM. This compound also registered an IC50 in [7] of 2.8 nM.
